# Results as given in patent US20200087625A1, “METHODS FOR ISOLATING, EXPANDING AND ADMINISTERING CANCER SPECIFIC CD8+ T CELLS” (priority 2017, published 2020).
# Tested on: 4T1 cells
# Assay: Secondary (orthotopic) 4T1 challenge after 1V270 therapy
# Type: in vivo, BALB/c mice
# From the text: FIGS. 24A-24G. Tumor infiltrating T cells in 1V270 treated mice show high clonalities and increased frequency of intra- and inter-individual common clones (A) Experimental protocols of the secondary challenge studies. Two groups of BALB/c mice (n=5/group) were i.p, treated with 1V270. One cohort of mice was i.v. injected with 4T1-GLF cells (2×10^4) on day 0 and tumor growth in the lungs was monitored by IVIS on day 20. […] Native BALB/c mice served as controls. 4T1 cells were orthotopically inoculated on day 21. (B) Tumor growth was measured with a caliper and calculated using the formula: volume (mm3)=(width)2×length/2. (C) TILs s were isolated from the secondarily challenged tumor on day 39 and stained for CD8^+ T cells (CD3^+CD8^+) and PD-1. The numbers of tumor-infiltrating cos• T cells were expressed per tumor volume (mm^3). Data are representative of 2 independent experiments showing similar results. Results were analyzed by the Mann-Whitney U test comparing the 1V270 treatment groups against the vehicle treated group. **P<0.01. (D·G) TCR repertoire of CD8^+ T cells from TILs s and splenocytes were examined. (D) The clonality index (1-normalized Shannon index) of CD8^+ T cells infiltrating to the left side of the secondarily challenged tumor was plotted against tumor volume in the tumor exposed mice. Correlation between the clonality index and the tumor volume was evaluated by Pearson's method (R^2=0.97, p<0.05).
# FIGS. 26A-26D. Intranasally administered 1V270 inhibits pulmonary colonization in experimental metastasis models (A) Protocol for testing the therapeutic efficacy of i.n. treatment with 1V270 in IV metastasis model. BALB/c mice (n=6-8/group) were i.n. administered with 1V270 (20 or 200 μg) or vehicle on days −3, −1, 3, 7, and 10. 4T1 cells were v. injected on day 0. (B) The numbers of lung nodules were counted on Day 21. *P<0.05 calculated by Kruskal-Wallis test with Dunn's post hoc test. (C) Intranasal 1V270 therapy attenuated the growth of secondarily challenged tumors. BALB/c mice (n=S) were i.n. treated with 200 μg 1V270 on days −3, −1, 3, 7 and 10. 4T1 cells were injected on day 0. On day 21, the surviving mice were orthotopically inoculated with 4T1 cells and tumor growth was monitored. The mice treated with 1V270 without i.v. tumor cell injection served as controls. (D) TILs were isolated from the secondarily challenged tumor, and the numbers of CD8^+ T cells and PD-1 expressing CD8^+ T cells were analyzed by flow cytometric assay. Data were analyzed by the Mann-Whitney U test comparing two groups. *P<0.05. Data are representative of 2 independent experiments showing similar results.
# In the spontaneous metastasis model, othotopically implanted tumor cells spontaneously form lung metastases within three weeks after implantation. 5×10^5 4T1 cells were inoculated in both sides of the 4th mammary pads of female BALB/c mice. Tumor length and width were recorded, and tumor volumes were calculated using the formula: volume (mm^3)=(width)^2×length/2. On day 28, mice were euthanized and the lungs were stained with intratracheally injected India ink and destained in Fekete's solution to count tumor nodules. In the experimental metastasis model, 2×10^4 4T1 cells were i.v. injected. On day 21, mice were euthanized and tumor nodules in lungs were counted as described above. In the secondary challenge experiment, 1V270 treated-mice without tumor signals in the lungs on day 21 of the experimental metastasis protocol were included. 5×10^5 4T1 cells were inoculated in both sides of the 4th mammary p ads. Tumor length and width were recorded, and tumor volumes were calculated similar with
# To validate that 1V270 therapy induced tumor-specific adaptive immune responses, we monitored the growth of secondarily challenged tumors following prior 1V270 treatment. The mice treated with 1V270 using the IV metastasis protocol were orthotopically re-challenged with 4T1 cells on day 21 (FIG. 24A). […]
# [1] = intranasal 1V270, tumor-exposed vs no tumor exposure or naive
compound,measurement,setting,value
CCCCCCCCC=CCCCCCCCC(=O)OCC(COP(=O)(O)OCCNC(=O)c1ccc(Cn2c(=O)[nH]c3c(N)nc(OCCOC)nc32)cc1)OC(=O)CCCCCCCC=CCCCCCCCC (stereo not shown) [1V270],numbers of CD8+ T cells in TILs,1V270-treated tumor-exposed vs 1V270-treated no-tumor exposed mice,Three-fold higher
same,growth of secondarily challenged tumor,i.p. 1V270-treated and tumor-exposed mice vs naive or no-tumor exposed mice,significantly impaired
same,growth of secondarily challenged tumor,i.p. 1V270-treated no-tumor exposed mice vs naive mice,no difference in the tumor growth
same,re-challenged tumor growth,"intranasal 1V270, tumor-exposed mice",significantly inhibited
same,number of CD8+ T cells in TILs,[1],A higher number
same,number of PD-1+CD8+ T cells in TILs,[1],A higher number
same,CD8+ T cells in TILs positive for PD-1,secondarily challenged tumor,more than 80%
